Measurements from the NIST ThermoML archive (doi:10.1016/j.jct.2016.03.012).

Test: wn = mass fraction of the nth substance listed
Settings: 101 kPa, Liquid; for viscosity: Capillary tube (Ostwald / Ubbelohde) method; for speed of sound: Frequency=3 MHz, Linear variable-path acoustic interferometer; for mass density: Pycnometric method

O=C[C@@H](O)[C@@H](O)[C@H](O)[C@H](O)CO [D-mannose] + O
Settings | mass density, w1 = 0.025 [kg/m3] | mass density, w1 = 0.05 [kg/m3] | speed of sound, w1 = 0.025 [m/s] | speed of sound, w1 = 0.05 [m/s] | viscosity, w1 = 0.025 [mPa·s] | viscosity, w1 = 0.05 [mPa·s]
293.15 K | – | 1017.15 | 1495.7 | 1508.3 | 1.074 | 1.146
298.15 K | – | 1016.04 | 1506.6 | 1516.6 | 0.9514 | 1.007
303.15 K | 1005.29 | 1014.73 | 1516.9 | 1525.2 | 0.8479 | 0.8925
308.15 K | 1003.71 | 1013.21 | 1526.9 | 1534.1 | 0.7636 | 0.8017
313.15 K | 1001.93 | 1011.5 | 1535.2 | 1542.6 | 0.6922 | 0.7265
318.15 K | 999.95 | 1009.58 | 1543 | 1551 | 0.6347 | 0.6654
